Data as given in patent US7341983B2, “Antimicrobial compositions including carboxylic acids and alkoxylated amines” (Ecolab Inc., priority 2003, dated 2008).

Test: Solution appearance with various types and amounts of alkoxylated amines
Format: physicochemical
Conditions: 2.4 wt-% octanoic acid, 21 wt-% phosphoric acid (75%), 8.0 wt-% citric acid, remainder water
Description: Test compositions were made with varying amounts and types of alkoxylated amines. These were made to include 2.4 wt-% octanoic acid, 21 wt-% phosphoric acid (75%), 8.0 wt-% citric acid, varying amounts of alkoxylated amine, with the remainder water.

iso-(2-hydroxyethyl) isodecyloxypropylamine [Alkoxylated Amine 6]
Solution appearance (2.5 wt-% alkoxylated amine): hazy yellow | Solution appearance (3 wt-% alkoxylated amine): hazy yellow | Solution appearance (3.5 wt-% alkoxylated amine): hazy | Solution appearance (4 wt-% alkoxylated amine): milky yellow | Solution appearance (4.5 wt-% alkoxylated amine): opaque-yellow | Solution appearance (5 wt-% alkoxylated amine): separated
